Assay results from patent publication US9346809B2 (LEO PHARMA A/S, priority 2009, dated 2016).

Columns and labels:
Type in all cases: biochemical
[1] = biological target: T1, TYK2 (aa 871-1187, catalytic domain, GST-tag) (Homo sapiens, UniProt P29597); assay: JAK kinase assay (HTRF, phosphorylation of TK substrate-biotin), TYK2; details: HTRF assay, ATP at Km (13 μM); read-out: TYK2 kinase inhibitory activity (EC50 indicator)
T1 construct: JAK1 (aa 850-1154) and TYK2 (aa 871-1187) are expressed with an N-terminally fused GST-tag; GST (N); purchased Carna Biosciences, Inc; host or cells: baculovirus expression system
T1 sequence (P29597 871-1187): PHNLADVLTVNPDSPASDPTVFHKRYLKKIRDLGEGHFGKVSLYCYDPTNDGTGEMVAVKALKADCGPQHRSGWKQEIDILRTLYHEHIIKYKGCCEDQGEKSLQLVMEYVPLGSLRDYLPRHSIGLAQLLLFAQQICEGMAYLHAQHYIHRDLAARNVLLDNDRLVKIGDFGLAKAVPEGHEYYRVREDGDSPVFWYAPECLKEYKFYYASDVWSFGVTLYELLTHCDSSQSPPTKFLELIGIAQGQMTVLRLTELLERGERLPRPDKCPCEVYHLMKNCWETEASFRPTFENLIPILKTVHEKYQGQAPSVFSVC
Method in brief: (§1)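 Per reaction, 5 ng JAK1, 0.1 ng JAK2, 0.3 ng JAK3 or 0.8 ng TYK2 (baculovirus-expressed catalytic domains) acted on 1 μM TK substrate-biotin at Km ATP for 20-30 min, RT. Phosphorylation measured by HTRF.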

[2] = biological target: T2, JAK1 (aa 850-1154, catalytic domain, GST-tag) (Homo sapiens, UniProt P23458); assay: JAK kinase assay (HTRF, phosphorylation of TK substrate-biotin), JAK1; details: HTRF assay, ATP at Km (7 μM); read-out: JAK1 kinase inhibitory activity (EC50 indicator)
T2 construct: JAK1 (aa 850-1154) and TYK2 (aa 871-1187) are expressed with an N-terminally fused GST-tag; GST (N); purchased Carna Biosciences, Inc; host or cells: baculovirus expression system
Method in brief: as §1

[3] = biological target: T3, JAK3 (catalytic domain, His-tag) (Homo sapiens, UniProt P52333); assay: JAK kinase assay (HTRF, phosphorylation of TK substrate-biotin), JAK3; details: HTRF assay, ATP at Km (2 μM); read-out: JAK3 kinase inhibitory activity (EC50 indicator)
T3 construct: All four purified enzymes contain only the catalytic domain; His (N); purchased Carna Biosciences, Inc; host or cells: baculovirus expression system
Method in brief: as §1

[4] = biological target: T4, JAK2 (catalytic domain, His-tag) (Homo sapiens, UniProt O60674); assay: JAK kinase assay (HTRF, phosphorylation of TK substrate-biotin), JAK2; details: HTRF assay, ATP at Km (4 μM); read-out: JAK2 kinase inhibitory activity (EC50 indicator)
T4 construct: All four purified enzymes contain only the catalytic domain; His (N); purchased Carna Biosciences, Inc; host or cells: baculovirus expression system
Method in brief: as §1

T2 sequence (P23458 850-1154): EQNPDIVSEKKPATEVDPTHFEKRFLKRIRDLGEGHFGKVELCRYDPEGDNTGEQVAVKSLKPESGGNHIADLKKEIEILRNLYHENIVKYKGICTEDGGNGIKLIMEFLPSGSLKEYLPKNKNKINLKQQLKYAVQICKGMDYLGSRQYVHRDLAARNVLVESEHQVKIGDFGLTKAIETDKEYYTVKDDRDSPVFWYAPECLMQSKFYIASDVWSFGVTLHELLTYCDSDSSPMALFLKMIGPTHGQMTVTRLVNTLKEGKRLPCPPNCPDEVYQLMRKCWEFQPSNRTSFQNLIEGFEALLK
T4 sequence (O60674 849-1124 limits assumed): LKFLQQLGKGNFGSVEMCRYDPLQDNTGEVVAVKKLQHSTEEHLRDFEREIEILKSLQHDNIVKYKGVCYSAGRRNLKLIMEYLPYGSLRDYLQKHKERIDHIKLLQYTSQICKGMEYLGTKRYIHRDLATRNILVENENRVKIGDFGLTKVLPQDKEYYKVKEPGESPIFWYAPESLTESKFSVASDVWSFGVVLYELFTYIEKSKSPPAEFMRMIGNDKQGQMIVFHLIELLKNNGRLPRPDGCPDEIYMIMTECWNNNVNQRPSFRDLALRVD
T3 sequence (P52333 822-1111 limits assumed): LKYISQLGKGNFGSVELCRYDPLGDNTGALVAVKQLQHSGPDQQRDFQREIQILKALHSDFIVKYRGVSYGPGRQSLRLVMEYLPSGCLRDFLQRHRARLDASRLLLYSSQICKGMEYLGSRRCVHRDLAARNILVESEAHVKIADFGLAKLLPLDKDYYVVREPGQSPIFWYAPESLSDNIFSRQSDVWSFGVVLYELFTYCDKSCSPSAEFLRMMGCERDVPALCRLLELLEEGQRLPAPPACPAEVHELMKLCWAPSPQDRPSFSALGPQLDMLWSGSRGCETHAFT

EC50 [1] [µM] | EC50 [2] [µM] | EC50 [3] [µM] | EC50 [4] [µM] | SMILES
0.1 to 0.5 | < 0.1 | < 0.1 | < 0.1 | N#Cc1ccc(C(=O)N2[C@@H]3CC[C@@H]2CN(c2ncnc4[nH]ccc24)C3)cc1F [Example 350, 2-Fluoro-4-[3-(7H-pyrrolo[2,3-d]pyrimidin-4-yl)-3,8-diaza-bicyclo[3.2.1]octane-8-carbonyl]-benzonitrile]
> 0.5 | < 0.1 | 0.1 to 0.5 | < 0.1 | N#Cc1ccc(C(=O)N2[C@@H]3CC[C@@H]2CN(c2ncnc4[nH]ccc24)C3)c(F)c1 [Example 351, 3-Fluoro-4-[3-(7H-pyrrolo[2,3-d]pyrimidin-4-yl)-3,8-diaza-bicyclo[3.2.1]octane-8-carbonyl]-benzonitrile]
> 0.5 | < 0.1 | 0.1 to 0.5 | < 0.1 | N#CCCCC(=O)N1[C@@H]2CC[C@@H]1CN(c1ncnc3[nH]ccc13)C2 [Example 352, 5-Oxo-5-[3-(7H-pyrrolo[2,3-d]pyrimidin-4-yl)-3,8-diaza-bicyclo[3.2.1]oct-8-yl]-pentanenitrile]
< 0.1 | < 0.1 | < 0.1 | < 0.1 | NS(=O)(=O)c1ccc(C(=O)N2[C@@H]3CC[C@@H]2CN(c2ncnc4[nH]ccc24)C3)cc1 [Example 353, 4-[3-(7H-Pyrrolo[2,3-d]pyrimidin-4-yl)-3,8-diaza-bicyclo[3.2.1]octane-8-carbonyl]-benzenesulfonamide]
> 0.5 | < 0.1 | 0.1 to 0.5 | < 0.1 | CC(=O)Nc1ccc(C(=O)N2[C@@H]3CC[C@@H]2CN(c2ncnc4[nH]ccc24)C3)cc1 [Example 354, N-{4-[3-(7H-Pyrrolo[2,3-d]pyrimidin-4-yl)-3,8-diaza-bicyclo[3.2.1]octane-8-carbonyl]-phenyl}-acetamide]
> 0.5 | < 0.1 | 0.1 to 0.5 | < 0.1 | O=C(c1ccc2[nH]c(=O)ccc2c1)N1[C@@H]2CC[C@@H]1CN(c1ncnc3[nH]ccc13)C2 [Example 355, 6-[3-(7H-Pyrrolo[2,3-d]pyrimidin-4-yl)-3,8-diaza-bicyclo[3.2.1]octane-8-carbonyl]-1H-quinolin-2-one]
> 0.5 | < 0.1 | 0.1 to 0.5 | < 0.1 | CS(=O)(=O)c1ccc(C(=O)N2[C@@H]3CC[C@@H]2CN(c2ncnc4[nH]ccc24)C3)cc1 [Example 356, (4-Methanesulfonyl-phenyl)-[3-(7H-pyrrolo[2,3-d]pyrimidin-4-yl)-3,8-diaza-bicyclo[3.2.1]oct-8-yl]-methanone]
0.1 to 0.5 | < 0.1 | < 0.1 | < 0.1 | O=C(c1ccc2cc[nH]c2c1)N1[C@@H]2CC[C@@H]1CN(c1ncnc3[nH]ccc13)C2 [Example 357, (1H-Indol-6-yl)-[3-(7H-pyrrolo[2,3-d]pyrimidin-4-yl)-3,8-diaza-bicyclo[3.2.1]oct-8-yl]-methanone]
0.1 to 0.5 | < 0.1 | 0.1 to 0.5 | < 0.1 | NC(=O)c1ccc(C(=O)N2[C@@H]3CC[C@@H]2CN(c2ncnc4[nH]ccc24)C3)cc1 [Example 358, 4-[3-(7H-Pyrrolo[2,3-d]pyrimidin-4-yl)-3,8-diaza-bicyclo[3.2.1]octane-8-carbonyl]-benzamide]
0.1 to 0.5 | < 0.1 | < 0.1 | < 0.1 | O=C(c1cccc2cc(O)ccc12)N1[C@@H]2CC[C@@H]1CN(c1ncnc3[nH]ccc13)C2 [Example 359, (6-Hydroxy-naphthalen-1-yl)-[3-(7H-pyrrolo[2,3-d]pyrimidin-4-yl)-3,8-diaza-bicyclo[3.2.1]oct-8-yl]-methanone]
> 0.5 | 0.1 to 0.5 | 0.1 to 0.5 | 0.1 to 0.5 | O=C(c1nsc2cc(Br)ccc12)N1[C@@H]2CC[C@@H]1CN(c1ncnc3[nH]ccc13)C2 [Example 360, (6-Bromo-benzo[d]isothiazol-3-yl)-[3-(7H-pyrrolo[2,3-d]pyrimidin-4-yl)-3,8-diaza-bicyclo[3.2.1]oct-8-yl]-methanone]
< 0.1 | < 0.1 | < 0.1 | < 0.1 | O=C(c1cc2cc(F)ccc2[nH]1)N1CCN(c2ncnc3[nH]ccc23)CC12CC2 [Example 361, (5-Fluoro-1H-indol-2-yl)-[7-(7H-pyrrolo[2,3-d]pyrimidin-4-yl)-4,7-diaza-spiro[2.5]oct-4-yl]-methanone]
0.1 to 0.5 | < 0.1 | < 0.1 | < 0.1 | O=C(c1cc2cccc(F)c2[nH]1)N1CCN(c2ncnc3[nH]ccc23)CC12CC2 [Example 362, (7-Fluoro-1H-indol-2-yl)-[7-(7H-pyrrolo[2,3-d]pyrimidin-4-yl)-4,7-diaza-spiro[2.5]oct-4-yl]-methanone]
0.1 to 0.5 | < 0.1 | < 0.1 | < 0.1 | O=C(c1cc2ccc(F)cc2[nH]1)N1CCN(c2ncnc3[nH]ccc23)CC12CC2 [Example 363, (6-Fluoro-1H-indol-2-yl)-[7-(7H-pyrrolo[2,3-d]pyrimidin-4-yl)-4,7-diaza-spiro[2.5]oct-4-yl]-methanone]
0.1 to 0.5 | < 0.1 | 0.1 to 0.5 | < 0.1 | CS(=O)(=O)c1ccc(C(=O)N2CCN(c3ncnc4[nH]ccc34)CC23CC3)cc1 [Example 364, (4-Methanesulfonyl-phenyl)-[7-(7H-pyrrolo[2,3-d]pyrimidin-4-yl)-4,7-diaza-spiro[2.5]oct-4-yl]-methanone]
< 0.1 | < 0.1 | < 0.1 | < 0.1 | CS(=O)(=O)c1ccc2[nH]c(C(=O)N3CCN(c4ncnc5[nH]ccc45)CC34CC4)cc2c1 [Example 365, (5-Methanesulfonyl-1H-indol-2-yl)-[7-(7H-pyrrolo[2,3-d]pyrimidin-4-yl)-4,7-diaza-spiro[2.5]oct-4-yl]-methanone]
> 0.5 | < 0.1 | 0.1 to 0.5 | < 0.1 | CS(=O)(=O)c1cc(C(=O)N2CCN(c3ncnc4[nH]ccc34)CC23CC3)ccc1F [Example 366, (4-Fluoro-3-methanesulfonyl-phenyl)-[7-(7H-pyrrolo[2,3-d]pyrimidin-4-yl)-4,7-diaza-spiro[2.5]oct-4-yl]-methanone]
0.1 to 0.5 | < 0.1 | 0.1 to 0.5 | < 0.1 | CS(=O)(=O)c1cccc(C(=O)N2CCN(c3ncnc4[nH]ccc34)CC23CC3)c1 [Example 367, (3-Methanesulfonyl-phenyl)-[7-(7H-pyrrolo[2,3-d]pyrimidin-4-yl)-4,7-diaza-spiro[2.5]oct-4-yl]-methanone]
0.1 to 0.5 | < 0.1 | 0.1 to 0.5 | < 0.1 | O=C(c1cc2c(F)cccc2[nH]1)N1CCN(c2ncnc3[nH]ccc23)CC12CC2 [Example 368, (4-Fluoro-1H-indol-2-yl)-[7-(7H-pyrrolo[2,3-d]pyrimidin-4-yl)-4,7-diaza-spiro[2.5]oct-4-yl]-methanone]
< 0.1 | < 0.1 | < 0.1 | < 0.1 | NS(=O)(=O)c1ccc(C(=O)N2CCN(c3ncnc4[nH]ccc34)CC23CC3)cc1 [Example 369, 4-[7-(7H-Pyrrolo[2,3-d]pyrimidin-4-yl)-4,7-diaza-spiro[2.5]octane-4-carbonyl]-benzenesulfonamide]
0.1 to 0.5 | < 0.1 | < 0.1 | < 0.1 | CS(=O)(=O)c1ccc(C(=O)N2CCN(c3ncnc4[nH]ccc34)CC23CC3)cc1F [Example 370, (3-Fluoro-4-methanesulfonyl-phenyl)-[7-(7H-pyrrolo[2,3-d]pyrimidin-4-yl)-4,7-diaza-spiro[2.5]oct-4-yl]-methanone]
< 0.1 | < 0.1 | < 0.1 | < 0.1 | NS(=O)(=O)c1cccc(C(=O)N2CCN(c3ncnc4[nH]ccc34)CC23CC3)c1 [Example 371, 3-[7-(7H-Pyrrolo[2,3-d]pyrimidin-4-yl)-4,7-diaza-spiro[2.5]octane-4-carbonyl]-benzenesulfonamide]
< 0.1 | < 0.1 | < 0.1 | < 0.1 | NS(=O)(=O)c1csc(C(=O)N2CCN(c3ncnc4[nH]ccc34)CC23CC3)c1 [Example 372, 5-[7-(7H-Pyrrolo[2,3-d]pyrimidin-4-yl)-4,7-diaza-spiro[2.5]octane-4-carbonyl]-thiophene-3-sulfonic acid amide]
